Measured values: patent US8653057B1, “Prophylactic perioperative testosterone supplementation for protection of and recovery of function” (The Regents of the University of California, priority 2010, dated 2014)

Assays:
[1] = testosterone supplementation of low-testosterone patients around radical prostatectomy (anecdotal results); assay type: in vivo, men
From the text: Therefore men with either low or low normal testosterone levels can be treated with testosterone (or other androgens such as synthetic steroids structurally related to testosterone) to prevent, mitigate or treat erectile dysfunction associated with RARP/RP. A large number of testosterone replacement drugs such as Androgel can easily be given to appropriate patients prior to or even following surgery. The amount of testosterone administered is sufficient to raise the free testosterone level into the high free testosterone range as defined above (generally greater than about 9 ng/dl). Where other androgens are used, the equivalent effectiveness of each different molecule in terms of testosterone is generally known. Sufficient androgen is given so that the effectiveness of the circulating level of androgen plus testosterone falls within the high free testosterone range. As will be clear to those of ordinary skill in the art, the testosterone or other androgen is administered at the usual amount and frequency. Circulating testosterone levels are measured at appropriate intervals (i.e., weekly or monthly) and the dosage adjusted if necessary.
We believe that preoperative supplementation will produce even more dramatic improvements. […]

[2] = cited from earlier work

## C[C@]12CC[C@H]3[C@@H](CCC4=CC(=O)CC[C@@]43C)[C@@H]1CC[C@@H]2O [testosterone]
[1]; supplementing low testosterone levels, anecdotal results
  recovery (of potency/sexual function) after prostate surgery: more rapid and more complete recovery
[1]; testosterone supplementation, limited data
  recurrence of the cancer: does not lead to recurrence of the cancer
[2]
  PSA values after testosterone replacement therapy: have not been shown to increase significantly
[2]; testosterone replacement after radical prostatectomy, small studies (7, 10 and 57 men), 13 and 19 months
  prostate specific antigen (PSA): without increasing prostate specific antigen (PSA)
